The source of these data is a melting point compilation (Tetko et al.; mined from patent text by program, amines drawn as free bases though some values may be those of a salt).

Some results are limits rather than exact numbers.

The term melting point denotes the temperature, or range, at which the solid turns liquid.

For `Cc1ccc(CC(=S)N2CCOCC2)cc1`, the melting point fell in the range of 182 to 185 °C.

With `CN1CCC(CC2CN=C(c3cc4cccc(N(C)S(=O)(=O)c5cccs5)c4[nH]3)S2)=N1` (stereo unspecified), the melting point lay in the range of 149 to 150 °C.

Turning to `CC(=O)C=Cc1c(C)c(C)c(C)c2c1OCC2`, the melting point turned out to be 116 °C.

The compound `CSc1ccc2c(c1)Cc1ccc(C=O)cc1O2` displayed a melting point of 122 to 123 °C.

Regarding `CC(C(=O)O)c1ccc2oc(Cc3c(Cl)cccc3Cl)nc2c1` (stereo unspecified), the melting point was 122 to 124 °C.

Consider `CC(C)c1[nH]n(-c2c(Cl)cccc2Cl)c2nc(Cc3ccc(CC(=O)NCCN(C)C)cc3)nc(=O)c1-2`, for which the melting point is 170 to 172 °C.

`COc1cccc2c1oc1c(N)n(C)nc12` registered a melting point of 186 to 188 °C.

For `N=C(Nc1cccc(NC(=O)/C=C/c2ccccc2Cl)c1)c1ccccc1`, the melting point was 262 to 264 °C.

As for `O=C1CC(C2CCCC2)CN1` (stereo unspecified), the melting point is 117 to 119 °C.

Turning to `COC(=O)Cc1nc(-c2ccccc2)c(-c2ccccc2)o1`, the melting point fell in the range of 87 to 91 °C.

In turn, `COc1cc2nc(SCc3nccc(N4CCOCC4)c3Cl)[nH]c2cc1OC` displayed a melting point of 109 to 112 °C.

For the compound `CS(=O)c1ccc(-c2nc(-c3nc4ccccc4c(=O)[nH]3)ccc2OCCO)cc1` (stereo unspecified), the melting point is 261 to 262 °C.

The compound `O=Cc1ccc2cc3ccccc3cc2c1` gave a melting point of 201 to 202 °C.

`CCCC(=O)Nc1c(C)c(C)c2c(c1C)C(c1ccc(C)cc1)C(C)(C)O2` (stereo unspecified) displayed a melting point of 138 to 139 °C.

`Fc1cccc(CSc2nnc(-c3ccc4c(c3)CCO4)o2)c1` registered a melting point of 128 to 129 °C.

In turn, `COc1ccc(C[C@H](NC(=O)OCc2ccccc2)C(=O)N2CCN(CC(=O)OC(C)(C)C)C(=O)[C@@H]2CCCNC(=O)OCc2ccccc2)cc1` returned a melting point of 138 to 140 °C.

The compound `COc1cc2c(cc1OC)C(C(=O)O)C(c1ccc(OCc3ccccc3)c(OCc3ccccc3)c1)N(C)C2=O` (stereo unspecified) showed a melting point of 194 to 196 °C.

`CCn1cnc2c(Nc3cccc(Cl)c3)nc(NCCN)nc21` returned a melting point of 79 to 80 °C.

`CS(=O)(=O)c1ccc(-n2nc(C(F)(F)F)cc2-c2ccc(F)cc2)cc1` had a melting point of 127 to 129 °C.

In turn, `CCOC(=O)c1ccc(OCCCCCCc2cccc(O)c2O)cc1` yielded a melting point of 45 to 47 °C.

`CCCCCCCCCCCCCCCCCC(=O)c1ccc(OC)c(C(=O)OC)c1` showed a melting point of 73 to 74 °C.

On to `NCCN1CCC(Nc2nc3ccccc3[nH]2)CC1`, for which the melting point turned out to be 99.8 °C.

Compound `CCOCc1nc2c(N)nc3cc(S(C)(=O)=O)ccc3c2n1CCCOC` came in with a melting point of 166 to 168 °C.

Take `CCN(CC)C(=O)NC1CC2c3cccc4[nH]c(C(C)=O)c(c34)CC2N(C)C1` (stereo unspecified): the melting point lay within 114 to 116 °C.

`CCOc1cc(C)nc2nc(S(=O)(=O)Nc3c(Cl)ccc(C)c3Cl)nn12` had a melting point of 228 to 229 °C.

The compound `COC(C(N)=O)(C(N)=O)c1ccc(Cl)c(Cl)c1` displayed a melting point of 211 to 213 °C.

`CCc1nc2ccc(OC(F)(F)F)cc2[nH]1` came in with a melting point of 135 to 137 °C.

Compound `Oc1ccc2c(c1)CCCC(c1ccccc1)=C2c1ccc(OCCCCCSCc2ccc(C(F)(F)F)cc2)cc1` came in with a melting point of 147 °C.

With `Cn1nnnc1S(=O)CCCCS(=O)(=O)c1nnnn1C` (stereo unspecified), the melting point is 147 to 149 °C.

As for `COc1cn2nc(OCCCN3CCN(C(c4ccccc4)c4ccccc4)CC3)ccc2n1`, the melting point was in the range of 144 to 146 °C.

Regarding `COc1ccc(OC)c(-c2nnc3ccc(Cl)nn23)c1`, the melting point lay within 111 to 112 °C.

The compound `Cn1cc(C2=C(c3cccc(N4CCC(O)CC4)c3)C(=O)NC2=O)c2ccccc21` had a melting point of 136 to 141 °C.

On to `N#Cc1c[nH]cc1C(F)(F)F`, for which the melting point lay within 96 to 97 °C.

Take `CC(C)(C)OC(=O)N1CCC(c2ccc3oc(-c4ccc(C(F)(F)F)cc4)nc3c2)CC1`: the melting point lay in the range of 161 to 164 °C.

Regarding `CCc1cccc2c3c([nH]c12)C(CC)(CC(=O)O)CCC3c1ccccc1` (stereo unspecified), the melting point was in the range of 140 to 142 °C.

On to `CC(=O)OC(C)OC(=O)[C@H](Cc1ccc(-c2c(C)n(C)c(=O)n(C)c2=O)cc1)NC(=O)c1c(C)cccc1Cl` (stereo partly specified), for which the melting point is 84 to 88 °C.

Turning to `Cc1nc(N=CN(C)C)nc(N(C)C)n1`, the melting point came out at 61 °C.

For `CCN(CC)S(=O)(=O)c1ccc2c(c1)S(=O)(=O)NC(C1CCCCC1)N2` (stereo unspecified), the melting point lay in the range of 207 to 209 °C.

On to `CC(C)(C)CC(C)(C)c1ccc(N)c([N+](=O)[O-])c1`, for which the melting point lay in the range of 104 to 107 °C.

`N#Cc1c(N)sc2ccccc2c1=O`: the melting point lay within 295 to 299 °C.

`CCCCCCCCc1ccc(CCC(CC)(COC(C)=O)NC(C)=O)cc1` (stereo unspecified) registered a melting point of 107 to 109 °C.

`Cc1ccc(N2C(=O)C(O)=C(C(=O)c3ccc(C(C)C)cc3)C2c2ccc(O)cc2)nn1` (stereo unspecified) came in with a melting point of 222 to 224 °C.

`CC(C)(C)OC(=O)C(C1NC(C(=O)O)C2(CCSCC2)S1)N1C(=O)c2ccccc2C1=O` (stereo unspecified): the melting point was 210 to 212 °C.

Take `O=C1Nc2ccc(Cl)cc2C(C#Cc2ccccc2)(C(F)(F)F)O1` (single isomer, unassigned; (-)): the melting point was in the range of 178 to 179 °C.

In the case of `CC(C#N)=C1CCN(c2ccc(N3C[C@H](CNC(=O)C(F)F)OC3=O)cc2F)CC1`, the melting point fell in the range of 172 to 174 °C.

For the compound `COc1ccc(-c2ccnn2-c2ccc(N3C[C@H](CNC(C)=O)OC3=O)cc2F)cc1OC`, the melting point lay in the range of 154 to 156 °C.

On to `CN1C(=O)COC(c2cccc(Cl)c2)c2cc(C(O)(c3ccc(Cl)cc3)c3cncn3C)ccc21` (stereo unspecified), for which the melting point was found to be 160 °C.

With `Clc1ccc(NNc2ccc(Cl)cc2)cc1`, the melting point was 120 to 121 °C.

For the compound `CCCC1=C(C#N)C(c2ccccc2[N+](=O)[O-])c2c[nH]nc2N1` (stereo unspecified), the melting point was 216 °C.

With `CN(C)c1ccccc1CC(=O)N1C[C@@H]2SCCC(c3ccccc3)(c3ccccc3)[C@@H]2C1` (racemic), the melting point was 163 °C.

`Cc1ccc(C)c2c(OCCNC(=O)OC(C)(C)C)noc12` gave a melting point of 78 to 79 °C.

In the case of `Cc1noc(NS(=O)(=O)c2ccc(-c3cccs3)s2)c1Br`, the melting point is 210 °C.

The compound `Cn1nc2ccccc2c1C(=O)NC1CCN(Cc2ccccc2)CC1` came in with a melting point of 167 to 169 °C.

For `O=c1[nH]c2ccccc2n1CCN1CCN(c2ccc(O)c(C(F)(F)F)c2)CC1`, the melting point was more than 250 °C.

Compound `COc1ccc(CN2C(=O)[C@@H](NC(=O)Cc3ccccc3)[C@H]2CNC(C)=O)c(OC)c1` (relative stereo) had a melting point of 205 to 207 °C.

`CC(C)(O)C#Cc1ncn2c1[C@@H]1CCCN1C(=O)c1ccccc1-2` displayed a melting point of 128 °C.

`NC(=S)N(N)Cc1cccc(Cl)c1` gave a melting point of 153 to 158 °C.

Regarding `Cc1cccc(N2Cc3nc(CO)nn3-c3ccccc32)c1C`, the melting point was 186 to 194 °C.

`O=c1c2cc(F)ccc2nc(CSc2ncnc3[nH]cnc23)n1-c1ccccc1Cl` came in with a melting point of 233 °C.

In turn, `CCC(C(=O)O)N(C(=O)c1cn(-c2cccc(C(F)(F)F)c2)nc1C)c1ccc(OCC(C)(C)C)c(C#N)c1` (stereo unspecified) came in with a melting point of 156 to 158 °C.

As for `COc1cc([N+](=O)[O-])c(N)cc1C(=O)Oc1ccccc1`, the melting point lay within 130 to 132 °C.

`CC(=O)C(C#N)C(=O)C1CC1` (stereo unspecified): the melting point was in the range of 62 to 63.5 °C.

The compound `O=C(O)CCCCC(=O)Nc1ccc(C(=O)NN=C2C(=O)Nc3ccc(I)cc32)cc1` showed a melting point of 286 °C.

For the compound `CN(O)C(=N)c1nn(-c2c(Cl)cc(C(F)(F)F)cc2Cl)c(N)c1S(=O)C(F)(F)F` (stereo unspecified), the melting point is 187 to 191 °C.

In turn, `CCNCC1CCN(c2c(F)cc3c(=O)c(C(=O)O)cn(C(C)C)c3c2F)C1` (stereo unspecified) gave a melting point of 230 to 231 °C.

For `CC1(C)CC(NC(=O)Nc2ccccc2)CC(C)(C)N1CC#N`, the melting point was 218 to 220 °C.

In turn, `COC(=O)c1cccc2[nH]c3cc4ccccc4c(OC)c3c12` displayed a melting point of 190 to 196 °C.

On to `COc1cccc(OC)c1C(=O)P(=O)(c1ccccc1)c1ccccc1`, for which the melting point lay in the range of 124 to 126 °C.

Turning to `COC(=O)C1(C)c2ccccc2-c2ccccc21`, the melting point is 108 to 109 °C.

Turning to `CC(C)C[C@H](N[C@H](CCN1C(=O)c2cc3ccccc3cc2C1=O)C(=O)OC(C)(C)C)C(=O)O`, the melting point fell in the range of 168 to 169 °C.

`CCOC(=O)c1cn(C2CC2)c2cc(Br)c(F)c(C)c2c1=O` displayed a melting point of 195 to 197 °C.

`COC(=O)c1ccc(-c2nnc(-c3ccc(C(F)(F)F)cc3)o2)c(N)c1` showed a melting point of 237 to 238 °C.

As to `Cc1ccc(C)c(-c2cccc3c2OC(CN)C3)c1` (stereo unspecified), the melting point was more than 225 °C.

Regarding `CSCCC(C)NC(=O)c1c(I)cccc1C(=O)O` (stereo unspecified), the melting point was in the range of 148 to 150 °C.

The compound `COc1ccccc1C(=O)c1cccnn1` came in with a melting point of 125 to 126 °C.

With `Nc1nc(NCc2cccc(F)c2)nc2nc(-c3ccco3)nn12`, the melting point is 216 to 218 °C.

`CC(=O)Nc1cccc(-c2ccc3nc(-c4cccnc4N)n(-c4ccc(CNS(=O)(=O)c5cn(C)cn5)cc4)c3n2)c1` gave a melting point of 190 to 192 °C.

Turning to `Oc1ccc(-c2noc3c(Br)cc(O)cc23)cc1`, the melting point lay in the range of 267 to 270 °C.

Turning to `COc1ccc(NC(=O)Nc2ccc(Cl)c(Cl)c2)cc1NC(=S)Nc1ccc(Cl)c([N+](=O)[O-])c1`, the melting point was 162 to 170 °C.

Compound `NC(=O)CN1C(=O)[C@@H](NC(=O)c2ccccc2)[C@H](c2ccccc2)Sc2ccccc21` (relative stereo) registered a melting point of 246 to 248 °C.

Regarding `Oc1ccc(-c2ccc(-c3ccc(F)cc3)nc2-c2ccc(OCCN3CCCCC3)cc2)cc1`, the melting point lay in the range of 194 to 195 °C.

The compound `CCCCOc1c(CN)n(CC(C)C)c(=O)c2ccc(/C=C/C(N)=O)cc12` had a melting point of 173 to 175 °C.

Compound `Cc1ncoc1C(O)c1ccco1` (stereo unspecified) displayed a melting point of 52 to 54 °C.

The compound `NCc1ccccc1C(F)(F)C(F)(F)c1ccc(F)cc1` came in with a melting point of 64 to 66 °C.

The compound `CCNC(=O)Cn1nc(Nc2ccc3c(c2)OC(F)(F)O3)nc1-c1cc(C)nc(C)c1` returned a melting point of 242 °C.

`CCNc1nc(-c2ccc(NC(=O)NCc3cccnc3)cc2)ccc1C(=O)NCCN(C(C)C)C(C)C` registered a melting point of 160 to 162 °C.
